The source of these data is publication PMC6437269, “OXA-48-Mediated Ceftazidime-Avibactam Resistance Is Associated with Evolutionary Trade-Offs” (mSphere, 2019).

In brackets after ≈: the same amount, converted by molar mass.

For one data set, the system named is E. coli TOP10. Nature of the data set: microbe, parasite or virus in culture. Type of data set: cell-based. The note with it: Escherichia coli, Table 3, read-out: MIC. Here is the method:
(§1) For MIC determination, single colonies were suspended in 0.9% saline buffer to a 0.5 McFarland standard and further diluted 1:100 in MH broth. Fifty microliters of the bacterial suspension was loaded onto in-house-designed and premade Sensititre microtiter plates (TREK Diagnostic Systems/Thermo Fisher Scientific, East Grinstead, United Kingdom). The plates were incubated for 20 h at 37°C. Antibiotic susceptibility testing was performed in duplicates.

A further data set deals with OXA-48:P68A (Klebsiella pneumoniae, UniProt Q6XEC0, P68A). The data set can be described thus: Steady-state enzyme kinetics, OXA-48:P68A. The following applies: substrate hydrolysis; 25°C, pH 7.0; error = 95% CI. In kind it is biochemical.
OXA-48:P68A, sequence (Q6XEC0 23-265 P68A): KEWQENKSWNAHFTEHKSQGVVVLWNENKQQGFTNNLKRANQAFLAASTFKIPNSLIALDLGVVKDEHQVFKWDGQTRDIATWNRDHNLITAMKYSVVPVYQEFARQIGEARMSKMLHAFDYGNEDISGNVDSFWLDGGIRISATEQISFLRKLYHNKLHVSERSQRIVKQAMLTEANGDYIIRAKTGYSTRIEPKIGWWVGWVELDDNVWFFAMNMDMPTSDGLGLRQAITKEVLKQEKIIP
For data set [1], the system named is MP101 (MP100 transformed with p50579417_3_OXA-48). Nature of the data set: MIC determination, MP101 (MG1655 with native OXA-48 plasmid). In kind it is cell-based, Escherichia coli. The note with it: Escherichia coli; Table 6; MP101, native plasmid; read-out: MIC.
Excerpt: Mueller-Hinton (MH) agar and broth were purchased from Thermo Fisher Scientific (East Grinstead, United Kingdom). Luria-Bertani (LB) broth, LB agar, ampicillin, amoxicillin, cefepime, CAZ, imipenem, meropenem, piperacillin, and tazobactam were obtained from Sigma-Aldrich (St. Louis, MO). Nitrocefin was purchased from Merck (Darmstadt, Germany). The characteristics of the clinical E. coli strain 50579417 harboring the OXA-48 plasmid (p50579417_3_OXA-48) have been described previously ([61], [62]). The plasmid p50579417_3_OXA-48 was conjugated into rifampin-resistant E. coli TOP10 and subsequently isolated using a plasmid mini-purification kit (Qiagen, Germany). E. coli MG1655 (DA4201) was electroporated with p50579417_3_OXA-48 as published previously ([63]). Transformants positive for blaOXA-48 were checked by PCR using REDTaq ready mix (Sigma-Aldrich, St. Louis, MO) and preOXA-48 primers ([61]).
as §1

The subject of data set [2] is MP104 (E. coli TOP10 expressing native OXA-48). The data set can be described thus: MIC determination, TOP10 expressing native OXA-48 (MP104). The following applies: Escherichia coli; Table 3; MP104, native OXA-48 in pCR-blunt II TOPO. Type of data set: cell-based. The procedure:
as §1
For a functional resistance profile, the native and mutated blaOXA-48 genes were cloned in the pCR-blunt II-TOPO vector (Invitrogen, CA) and expressed in E. coli TOP10 (Invitrogen, CA). The PCR product was obtained by Phusion High Fidelity PCR mastermix with High Fidelity buffer (New England Biolabs, MA) and preOXA-48 primers ([61]). Transformants were selected on LB agar plates containing 50 or 100 mg/liter ampicillin. Insertion size was verified by Sanger sequencing using M13 forward (5′-[…]-3′) and reverse (5′-[…]-3′) primers.

The subject of a further data set is E. coli MG1655 (MP100). The data set can be described thus: microbe, parasite or virus in culture. Type of data set: cell-based, Escherichia coli. The following applies: Escherichia coli, MG1655; Table 6; MP100; read-out: MIC. Here is the method: as §1
Data set [3] concerns MP107 (MP100 transformed with p50579417_3_OXA-48-CAZ). Nature of the data set: MIC determination, MP107 (MG1655 with CAZ-adapted plasmid). Type of data set: cell-based. The note with it: Escherichia coli; Table 6; MP107, adapted plasmid p50579417-OXA-48-CAZ. The procedure:
as §1

In data set [4] the test system is MP108 (MP100 transformed with p50579417_3_OXA-48-CAZ-AVI). Nature of the data set: MIC determination, MP108 (MG1655 with CAZ-AVI-adapted plasmid). In kind it is cell-based. The following applies: Escherichia coli; Table 6; MP108, adapted plasmid p50579417-OXA-48-CAZ-AVI. Here is the method: as §1
Data set [5] deals with MP105 (E. coli TOP10 expressing OXA-48:P68A). The data set can be described thus: microbe, parasite or virus in culture. In kind it is cell-based. The following applies: Escherichia coli; Table 3; MP105, OXA-48:P68A in pCR-blunt II TOPO.
The subject of data set [6] is CC(C)(O/N=C(\C(=O)N[C@@H]1C(=O)N2C(C(=O)[O-])=C(C[n+]3ccccc3)CS[C@H]12)c1csc(N)n1)C(=O)O. Nature of the data set: purified protein, by the assay type. The following applies: other: substrate hydrolysis, 25°C, 0.1 M phosphate buffer pH 7.0, 50 mM NaHCO3, error = 95% CI.
In data set [7] the test system is CCN1CCN(C(=O)N[C@@H](C(=O)N[C@@H]2C(=O)N3[C@@H]2SC(C)(C)[C@@H]3C(=O)O)c2ccccc2)C(=O)C1=O. Nature of the data set: purified protein, by the assay type. The note with it: other: substrate hydrolysis, 25°C, 0.1 M phosphate buffer pH 7.0, 50 mM NaHCO3, error = 95% CI.
In data set [8] the test system is C[C@@H](O)[C@H]1C(=O)N2C(C(=O)O)=C(S[C@@H]3CN[C@H](C(=O)N(C)C)C3)[C@H](C)[C@H]12. The data set can be described thus: purified protein, by the assay type. The following applies: other: substrate hydrolysis, 25°C, 0.1 M phosphate buffer pH 7.0, 50 mM NaHCO3, error = 95% CI.
The subject of data set [9] is C[C@@H](O)[C@H]1C(=O)N2C(C(=O)O)=C(SCCN=CN)C[C@H]12. The data set can be described thus: purified protein, by the assay type. The following applies: other: substrate hydrolysis, 25°C, 0.1 M phosphate buffer pH 7.0, 50 mM NaHCO3, error = 95% CI.
Data set [10] concerns CC1(C)S[C@@H]2[C@H](NC(=O)[C@H](N)c3ccccc3)C(=O)N2[C@H]1C(=O)O. Nature of the data set: purified protein, by the assay type. The following applies: other: substrate hydrolysis, 25°C, 0.1 M phosphate buffer pH 7.0, 50 mM NaHCO3, error = 95% CI.
Data set [11] has as its system CO/N=C(\C(=O)N[C@@H]1C(=O)N2C(C(=O)[O-])=C(C[N+]3(C)CCCC3)CS[C@H]12)c1csc(N)n1. The data set can be described thus: purified protein, by the assay type. The note with it: other: substrate hydrolysis, 25°C, 0.1 M phosphate buffer pH 7.0, 50 mM NaHCO3, error = 95% CI.
Data set [12] deals with O=C(Cc1cccs1)N[C@@H]1C(=O)N2C(C(=O)O)=C(/C=C/c3ccc([N+](=O)[O-])cc3[N+](=O)[O-])CS[C@H]12. Nature of the data set: purified protein, by the assay type. The note with it: other: substrate hydrolysis, 25°C, 0.1 M phosphate buffer pH 7.0, 50 mM NaHCO3, error = 95% CI.

As a reminder, the Km is the substrate concentration at which the rate is half of its maximum. One may read the kcat as the maximal rate divided by the concentration of active sites. As to `CO/N=C(\C(=O)N[C@@H]1C(=O)N2C(C(=O)[O-])=C(C[N+]3(C)CCCC3)CS[C@H]12)c1csc(N)n1` [FEP, cefepime], the MIC in the data set with E. coli TOP10 was 0.06 µg/mL (≈ 0.125 µM); in [1], 0.25 µg/mL (≈ 0.52 µM); in data set [2], 0.12 µg/mL (≈ 0.25 µM); with E. coli MG1655 (MP100) it was 0.06 µg/mL (≈ 0.125 µM); in data set [3] it was 0.5 µg/mL (≈ 1.04 µM); in [4], 0.25 µg/mL (≈ 0.52 µM). In data set [5], the MIC is 0.25 µg/mL (≈ 0.52 µM). For the same compound, the Km on OXA-48:P68A came out at 462 ± 126 µM. The kcat on OXA-48:P68A worked out at 0.5 ± 0.1 s⁻¹.

One may read the kcat/Km as the second-order rate constant that governs catalysis at low substrate concentration. With OXA-48 (Klebsiella pneumoniae), the Km in data set [6] is given as 300 ± 150 µM; in [7], 898 ± 155 µM; in [8] it was 4 ± 1 µM; in data set [9], 13 ± 2 µM; in data set [10], 370 ± 70 µM; in data set [11] it was 1,678 ± 686 µM. Besides, the Km in data set [12] is 226 ± 34 µM. The kcat in data set [6] is 3 ± 0.8 s⁻¹; in data set [7] it was 3.9 ± 0.5 s⁻¹; in data set [8], 0.71 ± 0.02 s⁻¹; in data set [9] it was 4.8 ± 0.2 s⁻¹; in [10], 608 ± 53 s⁻¹; in data set [11], 1.7 ± 0.6 s⁻¹. The kcat in [12] was determined as 141 ± 12 s⁻¹. Also, the kcat/Km in data set [6] turned out to be 10000 ± 8000 M⁻¹ s⁻¹; in data set [7], 4000 ± 1000 M⁻¹ s⁻¹; in data set [8] it was 177000 ± 50000 M⁻¹ s⁻¹; in data set [9], 365000 ± 71000 M⁻¹ s⁻¹; in [10], 1.64e+06 ± 455000 M⁻¹ s⁻¹; in [11], 1000 ± 800 M⁻¹ s⁻¹. Also, the kcat/Km in data set [12] came to 624000 ± 148000 M⁻¹ s⁻¹.

For `CO[C@@]1(NC(=O)C(C(=O)O)c2ccsc2)C(=O)N2[C@@H](C(=O)O)C(C)(C)S[C@@H]21` (stereo partly drawn) [TRM, temocillin], the MIC came to 16 µg/mL (≈ 38.6 µM) in the data set on E. coli TOP10; 256 µg/mL (≈ 618 µM) in data set [1]; 256 µg/mL (≈ 618 µM) in data set [2]; 8 µg/mL (≈ 19.3 µM) in the data set with E. coli MG1655 (MP100); 128 µg/mL (≈ 309 µM) in [3]; 32 µg/mL (≈ 77.2 µM) in data set [4]. In [5], this compound had an MIC of 64 µg/mL (≈ 154 µM).

In the case of `C[C@@H](O)[C@H]1C(=O)N2C(C(=O)O)=C(S[C@@H]3CN[C@H](C(=O)N(C)C)C3)[C@H](C)[C@H]12` [MEM, meropenem], the MIC turned out to be 0.03 µg/mL (≈ 0.0782 µM) in the data set on E. coli TOP10; 0.25 µg/mL (≈ 0.652 µM) in data set [1]; 0.25 µg/mL (≈ 0.652 µM) in [2]; 0.03 µg/mL (≈ 0.0782 µM) in the data set with E. coli MG1655 (MP100); 0.06 µg/mL (≈ 0.156 µM) in data set [3]; 0.06 µg/mL (≈ 0.156 µM) in data set [4]. This compound also had an MIC in [5] of 0.03 µg/mL (≈ 0.0782 µM). Besides, the Michaelis-Menten constant (Km) at OXA-48:P68A turned out to be 3 ± 1 µM. Besides, the kcat entry on OXA-48:P68A is recorded as “(8 ± 0.8) × 10^−4 s^−1”.

Turning to `C[C@@H](O)[C@H]1C(=O)N2C(C(=O)O)=C(S[C@@H]3CN[C@H](CNS(N)(=O)=O)C3)[C@H](C)[C@H]12` [DOR, doripenem], the MIC in the data set with E. coli TOP10 was determined as 0.03 µg/mL (≈ 0.0713 µM); in [1], 0.03 µg/mL (≈ 0.0713 µM); in [2], 0.03 µg/mL (≈ 0.0713 µM); in the data set on E. coli MG1655 (MP100), 0.015 µg/mL (≈ 0.0357 µM); in data set [3], 0.03 µg/mL (≈ 0.0713 µM); in [4], 0.03 µg/mL (≈ 0.0713 µM). In data set [5], this compound returned an MIC of 0.03 µg/mL (≈ 0.0713 µM).

Regarding `C[C@@H](O)[C@H]1C(=O)N2C(C(=O)O)=C(S[C@@H]3CN[C@H](C(=O)Nc4cccc(C(=O)O)c4)C3)[C@H](C)[C@H]12` [ETP, ertapenem], the MIC came out at 0.015 µg/mL (≈ 0.0315 µM) in the data set on E. coli TOP10; 1 µg/mL (≈ 2.1 µM) in [1]; 1 µg/mL (≈ 2.1 µM) in [2]; 0.015 µg/mL (≈ 0.0315 µM) in the data set with E. coli MG1655 (MP100); 0.25 µg/mL (≈ 0.526 µM) in [3]; 0.12 µg/mL (≈ 0.252 µM) in data set [4]. Also, the MIC in data set [5] was found to be 0.06 µg/mL (≈ 0.126 µM).
